Reference: patent US7910694B2, “Homing peptides to receptors of heart vasculature” (Cornell Research Foundation, Inc., priority 2002, dated 2011)
“Also recorded” adds a separate entry of the source. Each block holds one substance with its values, some of them ahead of it.

Assays:
[1] = tested on: receptors in the heart vasculature; experiment: Binding of homing peptides to receptors in heart vasculature versus other organs; set-up: species or system mammal; settings: for binding to BDNF receptor(s) in the vasculature of older hearts: usually trkB, more commonly truncated trkB; for binding to receptors on other organs (than heart, or heart and brain): organ selectivity
myocardial infarction = experiment: Intramyocardial TNFα followed by coronary occlusion: myocardial necrosis, apoptosis, mortality; type: in vivo, F344 rats
Experimental: (§1) FIG. 5. Aging-associated alterations in TNFα cardioprotection. (A) Representative immunostaining for PDGF-B in rat hearts injected with TNFα or PBS vehicle 24 h prior to sacrifice. (B) Quantification of PDGF-B density in the injected hearts (n=3, each group). (C) Representative cardiac histology after coronary occlusion: Mason's trichrome staining for myocardial necrosis (14 day post-coronary occlusion) in 4- and 24-month old rat hears treated with PBS (4- and 24-month old, n=4 and 10, respectively) and TNFα (4-month old, n=4); and (D) tunnel staining for apoptosis (DAB) with hematoxylin counter stain (2 day post-coronary occlusion) in 24-month old hearts treated with TNFα (n=10; 80% mortality vs. PBS 0%; p<0.05). (E) Quantification of myocardial necrosis in rat hearts 14 day post-coronary occlusion.
(§2) To examine the age-dependent effects of TNFα PDGF-B expression and protection from myocardial necrosis, sets of 4- and 24-month old F344 rats received intramyocardial injections of growth factor.

PDGF-B = experiment: Intramyocardial injection of TNFα: PDGF-B immunostaining in hearts; type: in vivo, F344 rats; settings: 100 ng intramyocardial, 24 h
Experimental: as §1, §2

[2] = tested on: cardiac microvascular endothelial cells (CMECs); experiment: PDGF-B induction (RT-PCR) after TNFα treatment of cultured CMECs; type: cell-based, F344 rats; settings: 4-month old rat CMECs, TNFα 30 ng/ml, 3 hr
From the text: FIG. 4. Aging-associated alterations in cardiac microvascular TNFα receptor pathways. (A) Representative immunostaining for TNF receptor 1 and 2 in the subepicardium and subendocardium of 3- and 18-month old murine hearts. (B) TNF receptor 1 and 2 densities in the subendocardium of 3- and 18-month old murine hearts (n=3, each). (C) RT-PCR for PDGF-B induction after TNFα treatment of 4- and 24-month old rat CMECs.
The functional significance of the changes in TNF receptor in the aging cardiac microvasculature was examined in vitro. Cardiac microvascular endothelial cells (CMECS) of 4 and 24-month old F344 rats were isolated and cultured. Briefly, the hearts were removed and minced in endothelial cell medium (DMEM containing 20% FBS, 1% endothelial cell growth factor, 1% endothelial cell growth supplement, 1% BME, 10^−4% heparin and 1% penicillin [10,000 I.U./ml]/streptomycin [10,000 μg/ml]), and digested with medium containing 0.2% collagenase and 0.005% Dnase, and 5% FBS for 45 minutes with subsequent endothelial cells isolation by PECAM-mediated magnetic particle collection (Dynabeads). The resultant CMECs (Dil-LDL uptake>95%) were cultured for 2 passages and seeded into 12-well culture dish (10^5 cells/well) and grown to confluence. Medium was changed to serum free-DMEM for 1 hr and then to medium containing 2% FBS+TNFα (30 ng/ml) for 3 hr.

binding to BDNF receptor(s) in the vasculature of older hearts [1]: bind
binding to receptors on other organs (than heart, or heart and brain) [1]: do not bind significantly
Substance: ARRGQAV

binding to BDNF receptor(s) in the vasculature of older hearts [1]: bind
binding to receptors on other organs (than heart, or heart and brain) [1]: do not bind significantly
Substance: GRRFIRV

binding to receptors on other organs (than heart, or heart and brain) [1]: does not bind significantly
binding capacity to TNF receptor(s) in vasculature of young versus older hearts ([1]; young vs older hearts): more binding capacity
Substance: QAQGQLV

Substance: TNFα: tumor necrosis factor α, growth factor injected intramyocardially or added to CMECs (NPQAEGQLQV)
extent of myocardial infarction in young hearts (myocardial infarction; 4-month old rats, 14 day post-coronary occlusion): markedly reduced
apoptosis in older hearts (myocardial infarction; 24-month old rats, anterior left ventricular wall, 2 day post-coronary occlusion): extensive apoptosis; also recorded: induced apoptosis
mortality in older rats (myocardial infarction; 24-month old rats, within 72 h of coronary occlusion): 80%
PDGF-B in young hearts in vivo (PDGF-B; 4-month old rats): specifically induced increase
PDGF-B in aging hearts in vivo (PDGF-B; 24-month old rats): minimal effect
PDGF-B expression in CMECs from young hearts [2]: induced
